According to patent publication US9682049B2, “Non-racemic mixtures of various ratios of D- and L-methadone and methods of treating pain using the same” (priority 2015, dated 2017):
Structures can show the parent of a compound that is named as a salt. Where two headings read alike, the source gives them in different places.

How the values were obtained:
[1] = Solubility of 75/25 D/L methadone HCl drug substance; assay type: physicochemical
Excerpt: General Properties of 75/25 D/L Methadone-HCl Included the Following Physical Characteristics: […]

[2] = test system: painful diabetic neuropathy; assay: Changes in VAS scores (SF-MPQ), double-blind randomized crossover study vs placebo; assay type: in vivo, human
Method: (§1) Potential patients were recruited by advertising and screened via interview, review of health history and medications, physical examination, lab work, and ECG.
(§2) The average daily pain score and the worst daily pain scores were measured. Patients recorded their pain score four times daily on a scale of 0 to 10. Additionally, pain scores were measured using a Visual Analog Scale (VAS) during weekly visits to the study center.
VAS is a measurement instrument that measures a characteristic or attitude that is believed to range across a continuum of values. For example, the amount of pain that a patient feels may range across a continuum from no pain to an extreme amount of pain. […] In order to capture this underlying continuum, VAS was devised, and in the present study, VAS was used as described here. (See e.g., D. Gould et al., J. Clin. Nursing, 10: 697-706 (2001)).
VAS was conducted by using a horizontal line, 100 mm in length, anchored by word descriptors at each end, as illustrated below. Patients marked on a line (as shown below) the point that best represented their perception of pain.
A VAS score was determined by measuring in millimeters from the left hand end of the line to the point that the patient marked.

[3] = test system: painful diabetic neuropathy; assay: Changes in average daily pain scores, double-blind randomized crossover study vs placebo; assay type: in vivo, human
Method: as §1, §2

[4] = test system: patients with painful diabetic neuropathy; assay: Patient withdrawal because of side effects in the 3:1 D:L-methadone study; settings: terminated the study because of side effects (mostly nausea and vomiting)
Method: Patients were subjected to forceful weekly titration of doses from 15 mg the first week, to 30 mg the second week, and to 40 mg the third and fourth weeks.

neuropathic pain [5] = settings: cited from earlier work; for placebo-adjusted relief of average daily pain intensity: Morley
[6] = test system: patients with neuropathic pain; settings: Morley study; cited from earlier work
neuropathic pain [7] = settings: Lemberg et al. 2006; cited from earlier work
neuropathic pain model = settings: intrathecal, rats; not reversed by naloxone; cited from earlier work
neuropathic pain [8] = settings: small group of patients, high dose; cited from earlier work

Structure (SMILES): CCC(=O)C(CC(C)N(C)C)(c1ccccc1)c1ccccc1 (racemic) [75:25 D:L-methadone, Mixture of 75% (6S)-6-(dimethylamino)-4,4-dipheylhepan-3-one hydrochloride and 25% (6R)-6-(dimethylamino)-4,4-dipheylhepan-3-one hydrochloride]
- Solubility ([1]; alcohols): readily soluble
- Solubility ([1]; ether): practically insoluble
- Solubility ([1]; methylene chloride): readily soluble
- Solubility ([1]; water): readily soluble
- Change in VAS score (SF-MPQ), median ([2]; 15 mg): −7.0
- Change in VAS score, difference in means vs placebo (95% CI) ([2]; 15 mg): −10.1 (−21.0; 0.9)
- Change in VAS score (SF-MPQ), mean ([2]; 15 mg, VAS 100 mm line, primary efficacy population): −12.8
- Change in VAS score (SF-MPQ), mean ([2]; 30 mg): −14.9
- Change in VAS score (SF-MPQ), median ([2]; 30 mg): −8.0
- Change in VAS score, difference in means vs placebo (95% CI) ([2]; 30 mg): −6.3 (−17.4; 4.9)
- Change in VAS score (SF-MPQ), mean ([2]; 40 mg (1st Week)): −19.5
- Change in VAS score (SF-MPQ), median ([2]; 40 mg (1st Week)): −13.0
- Change in VAS score, difference in means vs placebo (95% CI) ([2]; 40 mg (1st Week)): −10.5 (−19.6; −1.4)
- Change in VAS score (SF-MPQ), mean ([2]; 40 mg (2nd Week)): −20.7
- Change in VAS score (SF-MPQ), median ([2]; 40 mg (2nd Week)): −10.0
- Change in VAS score, difference in means vs placebo (95% CI) ([2]; 40 mg (2nd Week)): −8.1 (−18.3; 2.2)
- Change in VAS score (SF-MPQ), mean ([2]; 40 mg (Both Weeks)): −20.1
- Change in VAS score (SF-MPQ), median ([2]; 40 mg (Both Weeks)): −12.0
- Change in VAS score, difference in means vs placebo (95% CI) ([2]; 40 mg (Both Weeks)): −9.3 (−15.8; − 2.8)
- Change in VAS score (SF-MPQ), mean ([2]; 15-30 mg (Combined), pooled): −13.9
- Change in VAS score (SF-MPQ), median ([2]; 15-30 mg (Combined), pooled): −8.0
- Change in VAS score, difference in means vs placebo (95% CI) ([2]; 15-30 mg (Combined), pooled): −8.1 (−15.6; −0.6)
- placebo-adjusted relief of average daily pain intensity ([2]; lowest tested dose (15 mg) of the 3:1 mixture): −10.1
- placebo-adjusted relief of average daily pain intensity compared with 10 mg of racemic methadone ([2]; vs Morley 10 mg racemic methadone): 3 times better
- placebo-adjusted relief of average daily pain intensity compared with 20 mg of racemic methadone ([2]; vs Morley 20 mg racemic methadone): 54 % better
- Change in average daily pain score, Difference in Means vs placebo (95% CI) ([3]; 15 mg): −0.84 (−1.64; −0.04)
- Change in average daily pain score, Mean (SD) ([3]; 15 mg, scale of 0 to 10, two clinical sites combined): −0.88 (1.46)
- Change in average daily pain score, Difference in Means vs placebo (95% CI) ([3]; 30 mg): −1.14 (−2.30; 0.02)
- Change in average daily pain score, Mean (SD) ([3]; 30 mg): −1.41 (1.87)
- Change in average daily pain score, Difference in Means vs placebo (95% CI) ([3]; 40 mg (1st Week)): −1.08 (−2.20; 0.03)
- Change in average daily pain score, Mean (SD) ([3]; 40 mg (1st Week)): −1.57 (1.98)
- Change in average daily pain score, Difference in Means vs placebo (95% CI) ([3]; 40 mg (2nd Week)): −1.17 (−2.28; −0.06)
- Change in average daily pain score, Mean (SD) ([3]; 40 mg (2nd Week)): −1.73 (2.01)
- Change in average daily pain score, Difference in Means vs placebo (95% CI) ([3]; 40 mg (Both Weeks)): −1.13 (−1.88; −0.38)
- Change in average daily pain score, Mean (SD) ([3]; 40 mg (Both Weeks)): −1.65 (1.97)
- Change in average daily pain score, Difference in Means vs placebo (95% CI) ([3]; 15-30 mg Combined): −0.99 (1.67; −0.31)
- Change in average daily pain score, Mean (SD) ([3]; 15-30 mg Combined): −1.14 (1.67)
- patient withdrawal rate [4]: 17%

Structure (SMILES): CCC(=O)C(CC(C)N(C)C)(c1ccccc1)c1ccccc1 (racemic) [racemic methadone, methadone]
- placebo-adjusted relief of average daily pain intensity (neuropathic pain [5]; 10 mg of racemic methadone): −3.20
- placebo-adjusted relief of average daily pain intensity (neuropathic pain [5]; 20 mg of racemic methadone): −6.56
- analgesic effect in neuropathic pain (neuropathic pain [5]; Morley et al. 2003): analgesic effect
- patient withdrawal rate [6]: 37%

Structure (SMILES): CCC(=O)C(C[C@H](C)N(C)C)(c1ccccc1)c1ccccc1 [D-methadone, (S)-(+)-methadone]
- potency in neuropathic pain (neuropathic pain [7]): inactive
- antinociception (neuropathic pain model): produced antinociception
- analgesic response (neuropathic pain [8]): no analgesic response

Structure (SMILES): CCC(=O)C(C[C@@H](C)N(C)C)(c1ccccc1)c1ccccc1 [L-methadone, (R)-(−)-methadone]
- potency in neuropathic pain (neuropathic pain [7]): greater potency than other opioids
